How the values were obtained:
K-562 cells = experiment: Cell growth inhibition assay (CellTiter-Glo), K-562; assay type: cell-based, human; conditions: K-562, 4 days; for GI50: Homo sapiens, K562, 96 h, half-maximal growth inhibition; for K-562 TGI: total growth inhibition
Description: (§1) The human leukemia cell lines MV-4-11, THP-1 and K-562 were employed to characterize the effect of BET inhibitors on cellular proliferation and viability. Cells were obtained from the American Type Culture Collection (ATCC) and cultured at 37° C. in a humidified 5% CO2 incubator in the following media: MV-4-11: DMEM high glucose (Animed #1-26F01-I), 10% FCS (Animed #2-01F26-I), 4 mM L-Glutamine (Animed #5-10K50), 1 mM Sodium Pyruvate (Animed # G03625P), 1× Penicillin-Streptomycin (Animed # F12478P); K-562: Iscove's MEM (Animed #1-28F16-I), 10% FCS (Animed #2-01F26-I), 4 mM L-Glutamine (Animed #5-10K50), 1× Penicillin-Streptomycin (Animed # F12478P); THP-1: RPMI-1640 (Animed #1-41F01-I), 10% FCS (Animed #2-01F26-I), 2 mM L-Glutamine (Animed #5-10K50), 10 mM HEPES (Animed #5-31F100), 1 mM Sodium Pyruvate (Animed # G03625P), 1× Penicillin-Streptomycin (Animed # F12478P). The AML lines MV-4-11 and THP-1 are very sensitive to BET inhibitors and show massive cell death upon BET inhibition (Zuber et al., Nature, 478 (2011), 524-8). Compound-mediated suppression of cell proliferation/viability was assessed by quantification of cellular ATP levels using the CellTiter-Glo (CTG) reagent (Promega). Briefly, cells were seeded in 20 μl fresh medium into 384-well plates, followed by addition of 5 μl medium containing compound dilutions at 5-fold their final intended concentration. Dose-response effects were assessed by 3-fold serial dilutions of the test compound, starting at 10 μM. Following incubation of the cells for 4 days at 37° C. and 5% CO2, the effect of inhibitors on cell viability was quantified following addition of 20 μl CTG and luminescence quantification (integration time: 100 ms) as per vendor manual, using a correspondingly equipped Tecan M200 multi-mode platereader (TECAN, Switzerland). For data analysis, the assay background value determined in wells containing medium, but no cells, was subtracted from all data points. To enable differentiation of cytotoxic from cytostatic compounds, the number of viable cells is assessed relative to that observed at the time of compound addition using a separate cell plate (day 0). The effect of a particular test compound concentration on cell proliferation/viability is expressed as percentage of the background- and day 0-corrected luminescence reading obtained for cells treated with vehicle only (DMSO, 0.1% final concentration), which is set as 100%, whereas that luminescence reading for wells containing medium is set as −100%. Compound concentrations leading to half-maximal (1050) and total growth inhibition (TGI) were determined using standard four parameter curve fitting.

BRD4 (His-Brd4(44-477)) = BRD4 (His-Brd4(44-477)) (Homo sapiens (Human), UniProt O60885); experiment: TR-FRET in-vitro binding assay for BRD4; conditions: acetyl-histone H4 peptide
Description: All assays were performed in 384 well microtiter plates. Each assay plate contained 8-point serial dilutions for 40 test compounds, plus 16 high- and 16 low controls. Liquid handling and incubation steps were done on an Innovadyne Nanodrop Express equipped with a robotic arm (Thermo CatX, Perkin Elmer/Caliper Twister II) and an incubator (Liconic STX40, Thermo Cytomat 2C450). The assay plates were prepared by addition of 50 nl per well of compound solution in 90% DMSO HummingBird nanodispenser (Zinsser Analytic). […] Reactions were incubated at 30° C. for 35 minutes. […] After 35 minutes incubation at 30° C., plates were measured in a Perkin Elmer EnVision multilabel reader.
(§2) Test compounds were dissolved in DMSO (10 mM) and transferred into 1.4 mL flat bottom or V-shaped Matrix tubes carrying a unique 2D matrix. The stock solutions were stored at […] if not used immediately. For the test procedure the vials were defrosted and identified by a scanner whereby a working sheet was generated that guided the subsequent working steps. Compound dilutions were made in 96 well plates. This format enabled the assay of maximally 40 individual test compounds at 8 concentrations (single points) including 4 reference compounds, if desired (known BET inhibitors from the prior art, for this and other assays of the type disclosed herein). The dilution protocol included the production of “pre-dilution plates”, “master plates” and “assay plates”.
(§3) Pre-dilution plates: 96 polypropylene well plates were used as pre-dilution plates. A total of 4 pre-dilution plates were prepared including 10 test compounds each on the plate positions A1-A10, one standard compound at A11 and one DMSO control at A12. All dilution steps were done on a HamiltonSTAR robot. […] These plates were used directly for the assay which was performed in a total volume of 13.55 μL. […] Cell Growth Inhibition Assay

[1] = target: CREBBP bromodomain (His-CREBBP (1081-1197)) (Homo sapiens (Human), UniProt Q92793); experiment: AlphaScreen in-vitro binding assay for CREBBP; conditions: acetyl-histone H4 peptide
Sequence of CREBBP bromodomain (His-CREBBP (1081-1197)) (Q92793 1081-1197): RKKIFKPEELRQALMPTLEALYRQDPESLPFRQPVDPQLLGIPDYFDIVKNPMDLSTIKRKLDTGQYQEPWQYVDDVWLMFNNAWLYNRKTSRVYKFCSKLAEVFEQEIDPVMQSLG
Description: In order to assess bromodomain selectivity, we set up a binding assay using the bromodomain encoded by the CREBBP gene. […] Reactions were incubated at 30° C. for 35 minutes. Subsequently 4.5 μl per well detection mix (50 mM HEPES, pH 7.5, 0.005% Tween20, 0.02% BSA, 150 mM NaCl, 45 μg/ml Ni-chelate acceptor beads, 45 μg/ml streptavidin-donor beads) (Perkin Elmer)) were added. After 60 minutes incubation at room temperature, plates were measured in a Perkin Elmer EnVision multilabel reader. IC50 values were determined from percent inhibition values at different compound concentrations by non-linear regression analysis.
as §2, §3

MV-4-11 cells = experiment: Cell growth inhibition assay (CellTiter-Glo), MV-4-11; assay type: cell-based, human; conditions: MV-4-11, 4 days; for GI50: Homo sapiens, MV4-11, 96 h, half-maximal growth inhibition; for MV-4-11 TGI: total growth inhibition
Description: as §1

Row | Structure (SMILES) | GI50 (K-562 cells) [nM] | K-562 TGI (K-562 cells) [µM] | IC50 (BRD4 (His-Brd4(44-477))) [nM] | IC50 [1] [nM] | GI50 (MV-4-11 cells) [nM] | MV-4-11 TGI (MV-4-11 cells) [µM]
1 | Cc1nn(C2CC2)c2c1C(=O)N(c1cc(C)c(=O)n(C)c1)C2c1ccc(Cl)cc1 (stereo not drawn) [Example 11, 6-(4-chlorophenyl)-1-cyclopropyl-5-(1,5-dimethyl-6-oxo-1,6-dihydropyridin-3-yl)-3-methyl-5,6-dihydropyrrolo[3,4-c]pyrazol-4(1H)-one] | 127 | >10 | 40 | 1900 | 18.6 | 0.0294
2 | Cc1nn(C(C)C)c2c1C(=O)N(c1cc(C)c(=O)n(C)c1)C2c1ccc(Cl)cc1 (stereo not drawn) [Example 12, 6-(4-chlorophenyl)-5-(1,5-dimethyl-6-oxo-1,6-dihydropyridin-3-yl)-1-isopropyl-3-methyl-5,6-dihydropyrrolo[3,4-c]pyrazol-4(1H)-one] | 193 | >10 | 67 | 1400 | 19.1 | 0.0374
3 | COc1ccc(-n2nc(C)c3c2C(c2ccc(Cl)cc2)N(c2cc(C)c(=O)n(C)c2)C3=O)cc1 (stereo not drawn) [Example 13, 6-(4-chlorophenyl)-5-(1,5-dimethyl-6-oxo-1,6-dihydropyridin-3-yl)-1-(4-methoxyphenyl)-3-methyl-5,6-dihydropyrrolo[3,4-c]pyrazol-4(1H)-one] | 484 | >10 | 103 | 2200 | 30 | 0.0562
4 | COc1ncc(-n2nc3c(c2C)C(=O)N(c2cc(C)c(=O)n(C)c2)C3c2ccc(Cl)cc2)c(OC)n1 (stereo not drawn) [Example 14, 6-(4-chlorophenyl)-2-(2,4-dimethoxypyrimidin-5-yl)-5-(1,5-dimethyl-6-oxo-1,6-dihydropyridin-3-yl)-3-methyl-5,6-dihydropyrrolo[3,4-c]pyrazol-4(2H)-one] | 615 | >10 | 100 | 5100 | 122 | 0.203
5 | COc1ncccc1-c1nn(C)c2c1C(=O)N(c1cc(C)c(=O)n(C)c1)C2c1ccc(Cl)cc1 (stereo not drawn) [Example 15, 6-(4-chlorophenyl)-5-(1,5-dimethyl-6-oxo-1,6-dihydropyridin-3-yl)-3-(2-methoxypyridin-3-yl)-1-methyl-5,6-dihydropyrrolo[3,4-c]pyrazol-4(1H)-one] | 640 | >10 | 62.5 | 1000 | 54.6 | 0.0924
6 | COc1ncccc1-c1nn(C)c2c1C(=O)N(c1cc(C)c(=O)n(C)c1)[C@@H]2c1ccc(Cl)cc1 [Example 16, (R)-6-(4-chlorophenyl)-5-(1,5-dimethyl-6-oxo-1,6-dihydropyridin-3-yl)-3-(2-methoxypyridin-3-yl)-1-methyl-5,6-dihydropyrrolo[3,4-c]pyrazol-4(1H)-one] | 197 | >10 | 56 | 545 | 23.6 | 0.0437
7 | COc1ncccc1-n1nc2c(c1C)C(=O)N(c1cc(C)c(=O)n(C)c1)C2c1ccc(Cl)cc1 (stereo not drawn) [Example 17b, 6-(4-chlorophenyl)-5-(1,5-dimethyl-6-oxo-1,6-dihydropyridin-3-yl)-2-(2-methoxypyridin-3-yl)-3-methyl-5,6-dihydropyrrolo[3,4-c]pyrazol-4(2H)-one] | 154 | >10 | 56 | 1300 | 27 | 0.0343
8 | CCOc1ncccc1-n1nc2c(c1C)C(=O)N(c1cc(C)c(=O)n(C)c1)C2c1ccc(Cl)cc1 (stereo not drawn) [Example 18b, 6-(4-chlorophenyl)-5-(1,5-dimethyl-6-oxo-1,6-dihydropyridin-3-yl)-2-(2-ethoxypyridin-3-yl)-3-methyl-5,6-dihydropyrrolo[3,4-c]pyrazol-4(2H)-one] | 149 | >10 | 41 | 1300 | 16.9 | 0.0313
9 | Cc1nn(-c2cccnc2F)c2c1C(=O)N(c1cc(C)c(=O)n(C)c1)C2c1ccc(Cl)cc1 (stereo not drawn) [Example 19, 6-(4-chlorophenyl)-5-(1,5-dimethyl-6-oxo-1,6-dihydropyridin-3-yl)-1-(2-fluoropyridin-3-yl)-3-methyl-5,6-dihydropyrrolo[3,4-c]pyrazol-4(1H)-one] | 302 | >10 | 100 | 3800 | 50.5 | 0.0798
10 | COc1ccc(-n2nc3c(c2C)C(=O)N(c2cc(C)c(=O)n(C)c2)C3c2ccc(Cl)cc2)cn1 (stereo not drawn) [Example 20a, 6-(4-chlorophenyl)-5-(1,5-dimethyl-6-oxo-1,6-dihydropyridin-3-yl)-2-(6-methoxypyridin-3-yl)-3-methyl-5,6-dihydropyrrolo[3,4-c]pyrazol-4(2H)-one] | 236 | >10 | 62 | 2000 | 49.6 | 0.065
11 | COc1ncc(-n2nc(C)c3c2C(c2ccc(Cl)cc2)N(c2cc(C)c(=O)n(C)c2)C3=O)cn1 (stereo not drawn) [Example 21a, 6-(4-chlorophenyl)-5-(1,5-dimethyl-6-oxo-1,6-dihydropyridin-3-yl)-1-(2-methoxypyrimidin-5-yl)-3-methyl-5,6-dihydropyrrolo[3,4-c]pyrazol-4(1H)-one] | 404 | >10 | 71 | > 11100 | 115 | 0.177
